{"source": "paper PMC11091828", "about": "(Journal of medicinal chemistry, 2023)", "key": {"[1]": {"target": "T1, mMOR (Mus musculus, UniProt P42866)", "T1 sequence (P42866 whole entry)": "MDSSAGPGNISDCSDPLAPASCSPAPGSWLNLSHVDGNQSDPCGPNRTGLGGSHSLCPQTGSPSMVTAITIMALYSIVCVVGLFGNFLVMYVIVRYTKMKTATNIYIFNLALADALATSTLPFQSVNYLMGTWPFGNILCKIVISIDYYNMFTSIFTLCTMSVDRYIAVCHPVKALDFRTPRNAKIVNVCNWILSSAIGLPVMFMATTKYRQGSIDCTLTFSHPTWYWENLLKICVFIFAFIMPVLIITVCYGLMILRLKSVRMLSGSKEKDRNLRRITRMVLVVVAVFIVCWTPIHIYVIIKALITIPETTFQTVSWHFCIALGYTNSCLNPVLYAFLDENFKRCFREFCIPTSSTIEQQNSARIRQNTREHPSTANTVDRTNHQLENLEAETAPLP", "test": "BRET Nb33 recruitment at MOR, HEK 293T cells", "assay_type": "cell-based", "details": "read-out: MOR Nb33 recruitment Emax ± SEM"}, "[2]": {"target": "hMOR (Homo sapiens, UniProt P35372)", "sequence (P35372 whole entry)": "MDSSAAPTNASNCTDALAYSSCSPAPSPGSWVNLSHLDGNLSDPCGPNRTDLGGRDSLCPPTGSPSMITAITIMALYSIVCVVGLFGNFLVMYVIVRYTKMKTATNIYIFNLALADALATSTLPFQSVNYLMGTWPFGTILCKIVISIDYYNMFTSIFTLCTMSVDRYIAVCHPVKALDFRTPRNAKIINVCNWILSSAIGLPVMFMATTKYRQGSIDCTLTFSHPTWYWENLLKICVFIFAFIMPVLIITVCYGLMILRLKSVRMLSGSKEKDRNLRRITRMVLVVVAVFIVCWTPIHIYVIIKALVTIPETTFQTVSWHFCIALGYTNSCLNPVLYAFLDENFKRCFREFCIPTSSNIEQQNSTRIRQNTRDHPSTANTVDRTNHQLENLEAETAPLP", "test": "hMOR radioligand binding, competition with [3H]-DAMGO, HEK293 membranes", "details": "for improved MOR affinity with respect to 2-THP unsubstituted analog: 122 vs 115, 121 vs 112"}, "[3]": {"target": "T2, hD3R (Homo sapiens, UniProt P35462)", "T2 sequence (P35462 whole entry)": "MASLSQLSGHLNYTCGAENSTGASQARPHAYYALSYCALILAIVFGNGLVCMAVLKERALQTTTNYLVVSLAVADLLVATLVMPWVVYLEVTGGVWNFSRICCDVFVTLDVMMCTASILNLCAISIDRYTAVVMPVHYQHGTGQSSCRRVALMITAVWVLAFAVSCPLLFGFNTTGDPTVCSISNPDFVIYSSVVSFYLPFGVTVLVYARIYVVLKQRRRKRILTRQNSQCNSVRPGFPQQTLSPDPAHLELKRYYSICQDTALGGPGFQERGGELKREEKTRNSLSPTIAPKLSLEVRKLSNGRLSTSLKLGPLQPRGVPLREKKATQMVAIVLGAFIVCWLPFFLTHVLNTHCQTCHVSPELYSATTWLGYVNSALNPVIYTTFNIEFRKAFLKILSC", "test": "BRET D3R-mediated GαoA G protein activation", "assay_type": "cell-based", "details": "agonist mode; NA = No Activity at the highest tested concentration"}, "[4]": {"target": "T2, hD3R", "assay_type": "binding", "details": "from Ki values"}, "[5]": {"target": "T1, mMOR", "test": "BRET arrestin-3 recruitment at MOR with overexpressed GRK2, HEK 293T cells", "assay_type": "cell-based", "details": "NA = No Activity at the highest tested concentration"}, "[6]": {"target": "T1, mMOR", "test": "BRET MOR-mediated Gαi2 G protein activation", "assay_type": "cell-based", "details": "NA = No Activity at the highest tested concentration"}}}
{"smiles": "COc1ccccc1[C@@H]1C[C@H]1NCCC(C(=O)N(C)C)(c1ccccc1)c1ccccc1", "note": "(relative stereo) [compound 84, rel-trans-4-((2-(2-Methoxyphenyl)cyclopropyl)amino)-N,N-dimethyl-2,2-diphenylbutanamide]", "values": [{"measurement": "Emax", "setting": "[1]", "value": "31 ± 2.3", "unit": "%"}]}
{"smiles": "FC(F)(F)c1cccc(N2CCN(CCC3(c4ccccn4)CCOC4(CCCC4)C3)CC2)n1", "note": "(stereo not drawn) [compound 122, 1-(2-(9-(Pyridin-2-yl)-6-oxaspiro[4.5]decan-9-yl)ethyl)-4-(6-(trifluoromethyl)pyridin-2-yl)piperazine]", "values": [{"measurement": "improved MOR affinity with respect to 2-THP unsubstituted analog", "setting": "[2]", "value": "> 10", "unit": "fold"}]}
{"smiles": "CCc1cc(Cl)c(OC)c(N2CCN(C[C@@H]3C[C@@H](O)CN3CCC(C(=O)N(C)C)(c3ccccc3)c3ccccc3)CC2)c1", "note": "[compound 34, 4-((2S,4R)-2-((4-(3-Chloro-5-ethyl-2-methoxyphenyl)piperazin-1-yl)methyl)-4-hydroxypyrrolidin-1-yl)-N,N-dimethyl-2,2-diphenylbutanamide]", "values": [{"measurement": "D3R GoA activation pEC50 ± SEM", "setting": "[3]", "value": "7.60 ± 0.99"}]}
{"smiles": "Clc1ccc([C@@H]2C[C@H]2NCCC2(c3ccccn3)CCOC3(CCCC3)C2)cc1", "note": "(relative stereo) [compound 121, rel-trans-2-(4-Chlorophenyl)-N-(2-(9-(pyridin-2-yl)-6-oxaspiro[4.5]decan-9-yl)ethyl)cyclopropan-1-amine]", "values": [{"measurement": "improved MOR affinity with respect to 2-THP unsubstituted analog", "setting": "[2]", "value": "> 10", "unit": "fold"}, {"measurement": "D3R selectivity over D2R", "setting": "[4]", "value": 15, "unit": "fold"}, {"measurement": "MOR arr3 recruitment (+ GRK2) pEC50 ± SEM", "setting": "[5]", "value": "6.58 ± 0.08"}]}
{"smiles": "CCCN(CCC(C(=O)N(C)C)(c1ccccc1)c1ccccc1)[C@@H]1C[C@H]1c1ccc(Cl)cc1", "note": "(relative stereo) [compound 80, rel-trans-4-((2-(4-Chlorophenyl)cyclopropyl)(propyl)amino)-N,N-dimethyl-2,2-diphenylbutanamide]", "values": [{"measurement": "Emax", "setting": "[1]", "value": "27.7 ± 4.9", "unit": "%"}]}
{"smiles": "CN(C)C(=O)C(CCN1C[C@H](O)CC1=CN1CCN(c2cccc(Cl)c2Cl)CC1)(c1ccccc1)c1ccccc1", "note": "(mixture of isomers) [compound 26, (R)-4-(2-((4-(2,3-Dichlorophenyl)piperazin-1-yl)methylene)-4-hydroxypyrrolidin-1-yl)-N,N-dimethyl-2,2-diphenylbutanamide]", "values": [{"measurement": "Ki", "setting": "[2]", "value": 23.8, "unit": "nM"}]}
{"smiles": "CN(C)C(=O)C(CCN1C[C@H](F)C[C@H]1C(=O)NCCCCN1CCN(c2cccc(C(F)(F)F)n2)CC1)(c1ccccc1)c1ccccc1", "note": "[compound 56, (2S,4R)-1-(4-(Dimethylamino)-4-oxo-3,3-diphenylbutyl)-4-fluoro-N-(4-(4-(6-(trifluoromethyl)pyridin-2-yl)piperazin-1-yl)butyl)pyrrolidine-2-carboxamide]", "values": [{"measurement": "MOR Gi2 activation pEC50 ± SEM", "setting": "[6]", "value": "5.94 ± 0.08"}]}
